Assay results taken from patent US20170296490A1, “USE OF LIGNIN-DERIVED ALDEHYDES AS ANTIFUNGAL AGENTS” (Wisconsin Alumni Research Foundation, priority 2016, published 2017).

How the values were obtained:
Candida albicans = experiment: Growth inhibition of C. albicans (FIG. 6); type: cell-based; details: for inhibitory activity against C. albicans: at a concentration of 1000 μg/mL; for inhibition of Candida albicans (summary statement): no concentration stated
Description: FIG. 6 is a graph depicting dose-dependent inhibition of the yeast C. albicans by sinapyl aldehyde ([…]), coniferyl aldehyde (∘), and p-hydroxycoumaryl aldehyde (▾).
FIG. 6 depicts dose-dependent inhibition of C. albicans by sinapyl aldehyde ([…]), coniferyl aldehyde (∘), and p-hydroxycoumaryl aldehyde (▾). Here, the inhibition was not as pronounced as against S. cerevisiae.

Alternaria solani = experiment: Colony growth inhibition of Alternaria solani (FIG. 1); type: cell-based; details: for inhibition of Alternaria solani (summary statement): no concentration stated; for growth of the colony: A. solani, 250, 500 and 1,000 μg/mL vs untreated control (DMSO), dose-dependent
Experimental: FIG. 1 is a series of photographs illustrating dose-dependent inhibition of Alternaria solani by sinapaldehyde (top row) and coniferyl aldehyde (bottom row) at concentrations of 250 μg/mL, 500 μg/mL, and 1,000 μg/mL.
Without aggressive early control of the pathogen, early blight causes significant yield reductions.

Saccharomyces cerevisiae = experiment: Growth inhibition of the yeast S. cerevisiae (FIG. 5); type: cell-based; details: for inhibition of S. cerevisiae: at 500 μg/mL; for inhibition of Saccharomyces cerevisiae (summary statement): no concentration stated
Description: FIG. 5 is a graph depicting dose-dependent inhibition of the yeast S. cerevisiae by sinapyl aldehyde ([…]), coniferyl aldehyde (∘), and p-hydroxycoumaryl aldehyde (▾).
FIG. 5 depicts dose-dependent inhibition of S. cerevisiae by sinapyl aldehyde ([…]), coniferyl aldehyde (∘), and p-hydroxycoumaryl aldehyde (▾).

S. sclerotiorum = experiment: Colony growth inhibition of S. sclerotiorum (FIG. 4); type: cell-based, Sclerotinia sclerotiorum; details: for inhibition of Sclerotinia sclerotiorium (summary statement): no concentration stated; for growth of the colony: S. sclerotiorum, 250, 500 and 1,000 μg/mL vs untreated control (DMSO), dose-dependent
Experimental: FIG. 4 is a series of photographs illustrating dose-dependent inhibition of Scelerotinia sclerotiorium by sinapyl aldehyde (top row) and coniferyl aldehyde (bottom row) at concentrations of 250 μg/mL, 500 μg/mL, and 1,000 μg/mL.
FIG. 4 is a series of photographs analogous to FIG. 1, but showing the ability of sinapldehyde and coniferyl aldehyde to attenuate the grown of S. sclerotiorum. […] White mold is particularly significant economically because it affects a wide range of hosts. It is also capable of infecting plants at any stage of growth makes. S. sclerotiorum, can survive on infected tissues, in the soil, and on living plants. It affects young seedlings, mature plants, and fruit in the field or in storage. […] It can also propagate throughout a harvested crop if conditions are not monitored carefully. It infects many extensively planted crops, including soybeans, green beans, sunflowers, canola, and peanuts.

Alternaria alternata = experiment: Colony growth inhibition of Alternaria alternata (FIGS. 2, 3); type: cell-based; details: for inhibition of Alternaria alternata (summary statement): no concentration stated; for colony size: end of six days
Experimental: FIG. 2 is a graph depicting dose-dependent inhibition of Alternaria alternata by sinapyl aldehyde. Control=[…]. 250 μg/mL=∘. 500 μg/mL=▾. 1,000 μg/mL=Δ.
FIG. 3 is a graph depicting dose-dependent inhibition of Alternaria alternata by coniferyl aldehyde. Control=[…]. 250 μg/mL=∘. 500 μg/mL=▾. 1,000 μg/mL=Δ.
Similar to FIG. 1, FIG. 2 is a graph depicting dose-dependent inhibition of Alternaria alternata by sinapyl aldehyde. Time in days is on the X-axis; colony size in cm is on the Y-axis. […] A. alternata has also been implicated as a causative agent of asthma in humans. Salo et al. (October 2006) “Exposure to Alternaria alternata in US homes is associated with asthma symptoms” J Allergy Clin Immunol.; 118(4): 892-898.
(Control=[…]. 250 μg/mL=∘. 500 μg/mL=▾. 1,000 μg/mL=Δ.)

SMILES	inhibitory activity against C. albicans (Candida albicans)	inhibition of Candida albicans (summary statement) (Candida albicans)	inhibition of Alternaria solani (summary statement) (Alternaria solani)	inhibition of S. cerevisiae (Saccharomyces cerevisiae)	inhibition of Saccharomyces cerevisiae (summary statement) (Saccharomyces cerevisiae)	inhibition of Sclerotinia sclerotiorium (summary statement) (S. sclerotiorum)	inhibition of Alternaria alternata (summary statement) (Alternaria alternata)	growth of the colony (Alternaria solani)	growth of the colony (S. sclerotiorum)	colony size (Alternaria alternata; A. alternata, 250 μg/mL)	colony size (Alternaria alternata; A. alternata, 500 μg/mL)	colony size (Alternaria alternata; A. alternata, 1,000 μg/mL)	growth rates and colony size (Alternaria alternata; A. alternata, 250, 500 and 1,000 μg/mL treatment groups, six days)
O=C/C=C/c1ccc(O)cc1 [p-hydroxycoumaryl aldehyde]	very signification inhibitory activity	show inhibition	show inhibition	very significant inhibition	show inhibition	show inhibition	show inhibition	–	–	–	–	–	–
COc1cc(/C=C/C=O)cc(OC)c1O [sinapyl aldehyde]	–	show inhibition	show inhibition	very significant inhibition	show inhibition	show inhibition	show inhibition	very significantly inhibited	very significantly inhibited	smaller than the untreated colony	smaller still	the smallest of those tested	–
COc1cc(/C=C/C=O)ccc1O [coniferyl aldehyde]	very signification inhibitory activity	show inhibition	show inhibition	very significant inhibition	show inhibition	show inhibition	show inhibition	very significantly inhibited	very significantly inhibited	–	–	–	progressively attenuated growth rates and smaller colony size
